Test results taken from patent US20220267269A1, “COMPOUNDS FOR THE MODULATION OF PROPROTEIN CONVERTASE SUBTILISIN/KEXIN TYPE 9 (PCSK9)” (SRX Cardio, LLC, priority 2019, published 2022).

How the values were obtained:
PCSK9 = biological target: T1, PCSK9 (Homo sapiens, UniProt Q8NBP7); experiment: Fluorescent-LDL uptake analysis by flow cytometric analysis; type: cell-based
T1 construct: purchased Cayman Chemical 20631
Experimental: Cells, such as HuH7, FL83B, or a cell line transfected with a short-hairpin PCSK9 knockdown sequence such as HuH7/shPCSK9 or FL83B/shPCSK9 were plated and cultured at 37° C. for 12-24 h. Culture media was removed and replaced with fresh lipoprotein-depleted culture media supplemented with 5 μg/mL of fluorescently labeled LDL or lipoprotein-depleted culture media supplemented with 5 μg/mL of fluorescently labeled LDL plus a concentration of recombinant PCSK9 (for example 5 μg/mL recombinant PCSK9; Cayman Chemical, Cat. #20631). Examples of fluorescently labeled LDL include: DiI-LDL (Kalen Biomedical), or LDL conjugated to Dylight (e.g., LDL-Dylight 488, or LDL-Dylight 550 (Cayman Chemical, Cat. #10011229)). Lipoprotein-depleted culture media was composed of DMEM (Invitrogen) with 10% lipoprotein-depleted fetal bovine serum (Kalen Biomedical) and supplemented with penicillin-streptomycin (Life Technologies). Cells were dosed with small molecule test compounds at doses ranging from 0 nM to 100 μM, following a protocol adapted from Benjannet et al., “Effects of the prosegment and pH on the activity of PCSK9: evidence for additional processing events” J Biol Chem. 285(52):40965-40978 (2010), which is incorporated by reference in its entirety.
Following an incubation period of specified length, such as 16 hours, the lipoprotein-depleted media was removed and cells rinsed three times with a rinse solution (Dulbecco's phosphate buffered saline (D-PBS, Life Technologies), supplemented with 0.5% bovine serum albumin (BSA, Sigma) and 1 g/L glucose (Sigma)). The fluid was then removed, and cells are released from the plate using TrypLE Express (Life Technologies) per manufacturer's recommended procedures, such as incubation for 5-10 minutes at 37° C. The TyrpLE-Cell suspension was then transferred to 15 mL conical tubes, volume was increased to 2 mL with D-PBS supplemented with 0.5% BSA, and […], and the tubes were centrifuged at 250×gravity for 10 minutes. Following centrifugation, the supernatant was aspirated and the cell pellet was resuspended in 300 μL PBS and counterstained with 4′,6-diamidino-2-phenylindole (DAPI, Cayman Chemical) as a cell viability marker, other cell viability markers such as 7-aminoactinomycin D (7AAD, Life Technologies) have also been described in the art.
Cells were analyzed by for both 7AAD (dead cells) and fluorescent LDL in live cells using a flow cytometer per the manufacturer's operating manual. Cells incubated with small molecule compounds that are inhibitors of PCSK9 will be expected to show increased amounts of LDL fluorescence, relative to control (no compound) specimens, and cells incubated with small molecule compounds that are activators of PCSK9 will be expected to show decreased amounts of LDL fluorescence relative to control (no compound) specimens.
The LDL-uptake EC50 is provided as follows: +++: <0.5 μM; ++: 0.5-1μM; +: >1 μM.

[1] = In vivo PK in mice (IV and PO); settings: male, C57BL/6, mouse, plasma
Experimental: (§1) A representative compound (Compound 1041) was tested for oral bioavailability and efficacy in mice. Male C57BL/6 mice were purchased from Taconic Biosciences (Rensselaer, New York) and housed under standard conditions with the exception of being provided a high fat diet (#TD.90221, Envigo, Madison, Wis.) and water ad libitum. Following 4 weeks of diet acclimation the animals were then dosed with compound or vehicle as control specimens. Compound readily dissolved at 1.5 mg/ml in a 1% Tween-80 aqueous solution with 10-15 minutes sonication. This solution was used at the 1.5 mg/ml concentration for oral (PO) dosing or further diluted with sterile saline for intravenous (IV) dosing.
Test animals received a single dose at 3 mg/kg by IV or 15 mg/kg by PO while control animals received an equal volume of vehicle control by IV or PO, respectively. Plasma samples were collected at 0.25, […], 1, 2, 3, 6, 8, 24, and 48 hours while liver specimens were collected at 8, 24, and 48 hours and drug concentration were measured by LC-MS/MS per standard protocols.
In brief, blood was immediately centrifuged, and the resulting plasma was frozen and stored at −80° C. until analysis. […] Compound concentrations were determined by a liquid chromatography-mass tandem spectrometry (LC-MS/MS) per routine method (Quintara Discovery, Hayward, Calif.) following the standard protocol. […]

Male C57BL/6 mice = experiment: Liver panel in high fat diet mice; type: in vivo
Experimental: as §1
To assess animal health following compound exposure, a liver panel (Test Code #60405) was tested by IDEXX BioAnalytics (North Grafton, Mass.). […] Also of note, AST and ALT levels in the liver panel were elevated in the PO vehicle, which is attributed to the high fat diet used in the study (Envigo, #TD.90221).

[2] = Dissolution in dosing vehicle; type: physicochemical; settings: 1% Tween-80 aqueous solution, 10-15 minutes sonication
Experimental: as §1

[3] = daily 15 mg/kg PO, 72-hour group, versus vehicle control

T1 sequence (Q8NBP7 153-692): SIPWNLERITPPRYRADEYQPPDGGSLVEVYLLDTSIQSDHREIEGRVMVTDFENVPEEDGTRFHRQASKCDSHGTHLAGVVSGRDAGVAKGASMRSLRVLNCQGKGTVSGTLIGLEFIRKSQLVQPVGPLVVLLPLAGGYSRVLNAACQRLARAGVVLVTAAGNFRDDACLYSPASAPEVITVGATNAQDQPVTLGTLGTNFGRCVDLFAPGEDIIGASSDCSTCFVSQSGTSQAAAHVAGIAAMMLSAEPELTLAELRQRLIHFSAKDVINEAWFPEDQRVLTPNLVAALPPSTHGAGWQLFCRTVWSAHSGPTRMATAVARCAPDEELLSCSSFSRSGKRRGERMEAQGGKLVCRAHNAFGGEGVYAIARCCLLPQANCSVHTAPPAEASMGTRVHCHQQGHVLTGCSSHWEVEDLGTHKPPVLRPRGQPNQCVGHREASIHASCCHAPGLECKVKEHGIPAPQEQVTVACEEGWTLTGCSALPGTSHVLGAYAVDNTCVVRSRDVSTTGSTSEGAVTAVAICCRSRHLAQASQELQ

Work on Cc1cc(-c2ccc(F)cc2)ccc1C1CCCN(C2CCCC2)C1 (stereo not shown) [Compound 1,041, 1-cyclopentyl-3-(4′-fluoro-3-methyl-[1,1′-biphenyl]-4-yl)piperidine] yielded an EC50 (PCSK9) of 500 to 1000 nM, a half-life ([1]; IV 3 mg/kg) of 4.8 h and a half-life ([1]; PO 15 mg/kg) of 9.8 h. The “reduction in ALT levels” value (Male C57BL/6 mice; [3]) was 77.7%, the “reduction in AST levels” value (Male C57BL/6 mice; [3]) was 72.1% and the liver panel toxicity (Male C57BL/6 mice; three daily 15 mg/kg PO doses, 72 hours, versus PO vehicle) was “no overt toxicity”. For the same compound, the dissolved concentration [2] was no less than 1.5 mg/mL.
